Measurements reported in patent publication US20260137703A1, “2-AMINO-PYRIDO[2,3-D]PYRIMIDIN-7(8H)-ONE AND 7-AMINO-1-PYRIMIDO[4,5-D]PYRIMIDIN-2(1 H)-ONE DERIVATIVES AS EGFR INHIBITORS FOR THE TREATMENT OF CANCER” (Cancer Research Technology Limited, priority 2022, published 2026).
Where two headings read alike, the source gives them in different places.

Tests used:
[1] = THF
[2] = molecular target: T1, Phospho-EGFR (Tyr1068) in H1975 cells (Homo sapiens, UniProt P00533, L858R/T790M); assay: HTRF pEGFR/total EGFR in H1975 cells; type: cell-based; details: ratio pEGFR/total EGFR, compound 3 hours
T1 construct: host or cells: H1975
Summary of the method: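 Readout is the phospho-EGFR (Tyr1068) to total EGFR HTRF ratio, expressed relative to 0 μM control. Adhered H1975 cells were exposed to compound for 3 hours at 0.1% DMSO, duplicate wells, then lysed for 30 min at room temperature before two-wavelength fluorescence reading.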

[3] = molecular target: T2, Phospho-EGFR (Tyr1068) in A431 cells (Homo sapiens, UniProt P00533); assay: HTRF pEGFR/total EGFR in A431 cells with EGF stimulation; type: cell-based; details: ratio pEGFR/total EGFR, compound 2.5 hours then 100 ng/ml EGF 30 mins
T2 construct: endogenous in cells; host or cells: A431
Summary of the method: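 Values are pEGFR(Tyr1068)/total EGFR HTRF ratios (665/620 nm) given as percent of the 0 μM control. Adhered A431 cells (20,000 per well, 24 h) had 2.5 h compound pretreatment in 0.1% DMSO, then 30 min of 100 ng/ml EGF before lysis.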

[4] = molecular target: T3, Phospho-EGFR (Tyr1068) in H1975 C797S cells (CRISPR-edited EGFR C797S) (Homo sapiens, UniProt P00533, C797S/L858R/T790M); assay: HTRF pEGFR/total EGFR in H1975 C797S cells; type: cell-based; details: ratio pEGFR/total EGFR, compound 3 hours
T3 construct: host or cells: H1975 C797S (CRISPR-edited)
Summary of the method: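 Readout is the HTRF-measured Tyr1068 phospho-EGFR to total EGFR ratio, normalised to the 0 μM control as percent. Preceding this, CRISPR-edited H1975 C797S cells, plated 24 h earlier, were exposed 3 h to duplicate compound doses in medium with 0.1% DMSO, then lysed on a shaker.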

[5] = molecular target: CtermHisTag-mEGFR Wild type (Homo sapiens, UniProt P00533); assay: biochemical
CtermHisTag-mEGFR Wild type, sequence (P00533 whole entry): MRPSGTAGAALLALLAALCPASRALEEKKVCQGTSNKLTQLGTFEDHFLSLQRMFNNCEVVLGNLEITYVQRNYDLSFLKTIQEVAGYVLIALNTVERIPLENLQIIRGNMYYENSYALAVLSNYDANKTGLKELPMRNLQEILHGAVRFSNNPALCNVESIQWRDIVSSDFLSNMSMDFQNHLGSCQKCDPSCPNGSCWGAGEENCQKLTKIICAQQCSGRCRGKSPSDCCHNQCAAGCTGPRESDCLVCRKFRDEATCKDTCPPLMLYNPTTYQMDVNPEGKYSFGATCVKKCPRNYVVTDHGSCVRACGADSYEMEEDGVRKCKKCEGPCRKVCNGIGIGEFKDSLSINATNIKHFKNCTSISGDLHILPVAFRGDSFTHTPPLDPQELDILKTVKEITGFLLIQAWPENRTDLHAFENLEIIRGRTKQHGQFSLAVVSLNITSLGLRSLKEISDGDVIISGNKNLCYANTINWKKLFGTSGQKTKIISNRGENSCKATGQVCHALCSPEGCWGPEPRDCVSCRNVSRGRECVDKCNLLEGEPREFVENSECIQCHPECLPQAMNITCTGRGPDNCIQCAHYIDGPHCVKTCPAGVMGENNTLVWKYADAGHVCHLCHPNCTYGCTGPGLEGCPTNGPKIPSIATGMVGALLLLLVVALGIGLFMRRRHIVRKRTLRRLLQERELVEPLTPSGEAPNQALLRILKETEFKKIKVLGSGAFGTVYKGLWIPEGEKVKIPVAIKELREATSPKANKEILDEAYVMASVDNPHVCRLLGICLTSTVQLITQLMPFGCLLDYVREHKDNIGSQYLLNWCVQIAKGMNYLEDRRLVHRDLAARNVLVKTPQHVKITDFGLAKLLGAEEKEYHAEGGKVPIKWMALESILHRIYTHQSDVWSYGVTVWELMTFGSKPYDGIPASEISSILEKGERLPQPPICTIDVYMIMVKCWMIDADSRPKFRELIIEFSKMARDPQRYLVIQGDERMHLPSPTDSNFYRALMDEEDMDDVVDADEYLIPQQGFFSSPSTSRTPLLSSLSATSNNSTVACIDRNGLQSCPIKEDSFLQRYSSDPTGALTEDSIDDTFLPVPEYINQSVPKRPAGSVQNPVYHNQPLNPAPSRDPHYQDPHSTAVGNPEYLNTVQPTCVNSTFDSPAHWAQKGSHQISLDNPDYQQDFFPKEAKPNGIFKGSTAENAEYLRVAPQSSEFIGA

T2 sequence (P00533 25-1210): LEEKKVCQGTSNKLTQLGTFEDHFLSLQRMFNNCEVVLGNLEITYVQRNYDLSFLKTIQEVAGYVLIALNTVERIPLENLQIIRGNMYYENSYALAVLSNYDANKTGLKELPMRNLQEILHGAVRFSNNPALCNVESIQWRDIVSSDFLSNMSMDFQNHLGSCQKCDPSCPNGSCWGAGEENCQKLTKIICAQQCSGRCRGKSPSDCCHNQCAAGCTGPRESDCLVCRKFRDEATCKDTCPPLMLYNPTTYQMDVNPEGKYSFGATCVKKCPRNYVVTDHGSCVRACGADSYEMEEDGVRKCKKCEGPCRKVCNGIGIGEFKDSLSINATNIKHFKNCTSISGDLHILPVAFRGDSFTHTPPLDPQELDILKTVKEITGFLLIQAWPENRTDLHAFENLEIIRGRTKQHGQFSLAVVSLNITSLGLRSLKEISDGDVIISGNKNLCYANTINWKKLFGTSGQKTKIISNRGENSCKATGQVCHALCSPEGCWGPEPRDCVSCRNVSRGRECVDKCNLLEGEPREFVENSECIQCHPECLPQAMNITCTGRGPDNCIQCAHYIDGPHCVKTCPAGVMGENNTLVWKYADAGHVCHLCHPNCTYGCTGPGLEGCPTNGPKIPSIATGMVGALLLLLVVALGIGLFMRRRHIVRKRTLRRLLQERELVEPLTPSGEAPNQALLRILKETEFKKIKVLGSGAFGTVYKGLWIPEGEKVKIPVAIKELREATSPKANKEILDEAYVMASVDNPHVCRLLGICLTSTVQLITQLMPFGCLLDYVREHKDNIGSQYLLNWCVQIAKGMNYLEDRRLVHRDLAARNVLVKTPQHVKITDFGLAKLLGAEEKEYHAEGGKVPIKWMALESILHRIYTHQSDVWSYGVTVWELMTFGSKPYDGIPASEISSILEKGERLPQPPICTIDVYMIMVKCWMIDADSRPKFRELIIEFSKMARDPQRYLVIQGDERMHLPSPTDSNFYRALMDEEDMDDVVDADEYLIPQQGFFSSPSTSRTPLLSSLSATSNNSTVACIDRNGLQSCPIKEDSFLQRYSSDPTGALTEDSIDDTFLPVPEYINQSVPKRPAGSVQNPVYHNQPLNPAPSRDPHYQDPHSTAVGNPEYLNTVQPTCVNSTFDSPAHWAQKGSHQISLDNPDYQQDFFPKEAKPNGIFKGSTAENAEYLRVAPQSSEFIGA
T1 sequence (P00533 25-1210 T790M/L858R): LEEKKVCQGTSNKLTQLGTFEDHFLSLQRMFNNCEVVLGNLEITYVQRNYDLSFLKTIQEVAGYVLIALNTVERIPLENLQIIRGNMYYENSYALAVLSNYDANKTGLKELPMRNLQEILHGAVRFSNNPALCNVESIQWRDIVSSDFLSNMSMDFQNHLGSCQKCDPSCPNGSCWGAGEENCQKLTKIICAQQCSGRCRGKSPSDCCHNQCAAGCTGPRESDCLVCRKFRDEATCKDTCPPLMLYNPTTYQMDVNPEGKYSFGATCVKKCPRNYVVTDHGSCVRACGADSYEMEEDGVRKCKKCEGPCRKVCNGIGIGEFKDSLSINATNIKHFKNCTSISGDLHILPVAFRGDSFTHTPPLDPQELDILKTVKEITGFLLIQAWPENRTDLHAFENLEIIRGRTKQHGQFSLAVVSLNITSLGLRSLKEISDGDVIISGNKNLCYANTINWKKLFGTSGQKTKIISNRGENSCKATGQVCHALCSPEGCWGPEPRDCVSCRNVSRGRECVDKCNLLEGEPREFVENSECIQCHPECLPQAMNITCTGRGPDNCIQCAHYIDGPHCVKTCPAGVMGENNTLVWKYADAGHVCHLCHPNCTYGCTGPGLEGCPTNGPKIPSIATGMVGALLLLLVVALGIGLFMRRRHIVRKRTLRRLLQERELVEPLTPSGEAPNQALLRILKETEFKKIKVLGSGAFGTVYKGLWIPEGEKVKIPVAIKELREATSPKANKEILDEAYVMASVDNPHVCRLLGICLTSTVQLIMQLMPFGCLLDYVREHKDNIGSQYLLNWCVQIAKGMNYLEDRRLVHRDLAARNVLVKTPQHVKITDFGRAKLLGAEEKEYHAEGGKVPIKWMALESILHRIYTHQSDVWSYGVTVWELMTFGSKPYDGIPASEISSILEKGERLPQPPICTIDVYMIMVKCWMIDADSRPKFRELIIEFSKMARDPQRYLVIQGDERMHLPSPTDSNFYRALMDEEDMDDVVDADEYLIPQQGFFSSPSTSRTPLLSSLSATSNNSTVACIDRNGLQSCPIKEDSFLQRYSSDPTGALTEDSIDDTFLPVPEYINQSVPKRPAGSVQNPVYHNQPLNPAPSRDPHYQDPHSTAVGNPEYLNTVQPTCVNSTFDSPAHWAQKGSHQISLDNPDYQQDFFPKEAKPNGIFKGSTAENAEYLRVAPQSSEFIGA
T3 sequence (P00533 25-1210 T790M/C797S/L858R): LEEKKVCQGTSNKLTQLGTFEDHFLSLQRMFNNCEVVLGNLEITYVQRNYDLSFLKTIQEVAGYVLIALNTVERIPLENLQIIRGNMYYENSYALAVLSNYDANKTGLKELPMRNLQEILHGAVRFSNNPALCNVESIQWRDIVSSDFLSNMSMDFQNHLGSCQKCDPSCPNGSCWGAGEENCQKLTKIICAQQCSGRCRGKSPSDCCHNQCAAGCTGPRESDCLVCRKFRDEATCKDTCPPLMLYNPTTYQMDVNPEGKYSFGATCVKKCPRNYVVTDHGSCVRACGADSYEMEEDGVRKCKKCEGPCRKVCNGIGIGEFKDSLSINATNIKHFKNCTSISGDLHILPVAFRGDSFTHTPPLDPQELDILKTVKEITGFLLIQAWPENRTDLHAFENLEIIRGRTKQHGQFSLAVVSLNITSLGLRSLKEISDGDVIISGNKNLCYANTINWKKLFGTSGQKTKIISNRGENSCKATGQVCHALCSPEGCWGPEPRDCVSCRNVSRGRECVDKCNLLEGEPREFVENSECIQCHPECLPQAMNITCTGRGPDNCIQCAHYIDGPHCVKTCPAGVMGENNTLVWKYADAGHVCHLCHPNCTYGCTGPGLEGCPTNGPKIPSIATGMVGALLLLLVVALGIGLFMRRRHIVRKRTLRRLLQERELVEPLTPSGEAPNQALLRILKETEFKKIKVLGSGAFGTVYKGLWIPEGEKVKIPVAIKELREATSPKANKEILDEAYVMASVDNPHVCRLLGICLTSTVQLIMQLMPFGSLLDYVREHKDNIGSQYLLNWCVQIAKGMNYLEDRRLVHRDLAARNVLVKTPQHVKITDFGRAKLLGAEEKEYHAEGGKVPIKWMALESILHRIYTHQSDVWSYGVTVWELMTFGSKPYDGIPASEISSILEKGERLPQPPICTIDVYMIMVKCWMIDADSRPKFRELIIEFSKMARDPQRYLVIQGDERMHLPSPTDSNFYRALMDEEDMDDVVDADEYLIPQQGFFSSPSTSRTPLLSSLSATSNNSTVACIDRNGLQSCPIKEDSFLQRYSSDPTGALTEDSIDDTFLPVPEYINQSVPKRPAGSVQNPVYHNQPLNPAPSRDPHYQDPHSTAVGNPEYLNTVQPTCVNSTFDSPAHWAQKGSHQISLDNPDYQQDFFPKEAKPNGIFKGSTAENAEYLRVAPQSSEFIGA

Compound | IC50 [2] [nM] | IC50 [3] [nM] | IC50 [4] [nM] | IC50 [5] [nM] | other results
CC(C)[Si](C#Cc1cc(=O)n2c3nc(ncc13)Nc1ccc(N3CCN(C)CC3)c(c1)COCCCC2)(C(C)C)C(C)C | – | – | – | – | ring closure, isolated yield ([1]; from CC(C)[Si](C#Cc1cc(=O)[nH]c2nc(Nc3ccc(N4CCN(C)CC4)c(COCCCCO)c3)ncc12)(C(C)C)C(C)C, other bond, 14-membered ring, PPh3/DEAD, 129.0 mM): 28%
3^4-(4-(2-Methoxyethyl)piperazin-1-yl)-1^5-((triisopropylsilyl)ethynyl)-1^7,1^8-dihydro-4-oxa-2-aza-1(2,8)-pyrido[2,3-d]pyrimidina-3(1,3)-benzenacyclooctaphan-1^7-one | – | – | – | – | ring closure, isolated yield ([1]; other bond, 13-membered ring, PPh3/DEAD, 83.2 mM): 49%
CC(C)[Si](C#Cc1cc(=O)n2c3nc(ncc13)Nc1ccc(N3CCN(C)CC3)c(c1)OCC=CC2)(C(C)C)C(C)C | – | – | – | – | ring closure, isolated yield ([1]; from CC(C)[Si](C#Cc1cc(=O)[nH]c2nc(Nc3ccc(N4CCN(C)CC4)c(OC/C=C\CO)c3)ncc12)(C(C)C)C(C)C, other bond, 13-membered ring, PPh3/DIAD, 24.0 mM): 55%
(5^1S,5^3R)-1^4-(4-Methylpiperazin-1-yl)-3^5-((triisopropylsilyl)ethynyl)-3^7,3^8-dihydro-7-oxa-2-aza-3(2,8)-pyrido[2,3-d]pyrimidina-1(1,3)-benzena-5(1,3)-cyclopentanacycloheptaphan-3^7-one | – | – | – | – | ring closure, isolated yield ([1]; other bond, 14-membered ring, PPh3/DIAD, 93.0 mM): 17%
CC(C)[Si](C#Cc1cc(=O)n2c3nc(ncc13)Nc1cccc(c1)OCC=CC2)(C(C)C)C(C)C | – | – | – | – | ring closure, isolated yield ([1]; from CC(C)[Si](C#Cc1cc(=O)n(C/C=C\CO)c2nc(Nc3cccc(O)c3)ncc12)(C(C)C)C(C)C, ether bond, 13-membered ring, PPh3/DIAD, 25.0 mM): 33%; ring closure, isolated yield ([1]; from CC(C)[Si](C#Cc1cc(=O)n(C/C=C\CO)c2nc(Nc3cccc(O)c3)ncc12)(C(C)C)C(C)C, ether bond, 13-membered ring, PPh3/DIAD, 278.0 mM): 52%
Cc1c(C#C[Si](C(C)C)(C(C)C)C(C)C)c2cnc3nc2n(c1=O)CC=CCOc1cccc(c1)N3 | – | – | – | – | ring closure, isolated yield ([1]; from Cc1c(C#C[Si](C(C)C)(C(C)C)C(C)C)c2cnc(Nc3cccc(O)c3)nc2n(C/C=C\CO)c1=O, ether bond, 13-membered ring, PPh3/DIAD, 180.0 mM): 52%
3^4-(4-Methylpiperazin-1-yl)-1^5-[2-(triisopropylsilyl)ethynyl]-1^7,1^8-dihydro-2,4-diaza-1(2,8)-pyrido[2,3-d]pyrimidine-3(1,3)-benzenacyclooctaphane-1^7,5-dione | – | – | – | – | ring closure, isolated yield ([1]; other bond, 13-membered ring, PPh3/DEAD, 162.0 mM): 62%
COCCN1CCN(c2ccc3cc2NC(=O)CCCn2c(=O)cc(C#C[Si](C(C)C)(C(C)C)C(C)C)c4cnc(nc42)N3)CC1 | – | – | – | – | ring closure, isolated yield ([1]; from COCCN1CCN(c2ccc(Nc3ncc4c(C#C[Si](C(C)C)(C(C)C)C(C)C)cc(=O)[nH]c4n3)cc2NC(=O)CCCO)CC1, other bond, 13-membered ring, PPh3/DEAD, 25.7 mM): 42%
4-Methyl-3^4-(4-methylpiperazin-1-yl)-1^5-((triisopropylsilyl)ethynyl)-1^7,1^8-dihydro-2,4-diaza-1(2,8)-pyrido[2,3-d]pyrimidina-3(1,3)-benzenacyclooctaphane-1^7,5-dione | – | – | – | – | ring closure, isolated yield ([1]; other bond, 13-membered ring, PPh3/DIAD, 158.0 mM): 38%
CC(C)[Si](C#Cc1cc(=O)n2c3nc(ncc13)Nc1ccc(N3CCN(C)CC3)c(c1)CNCCC2)(C(C)C)C(C)C | – | – | – | – | ring closure, isolated yield ([1]; from CC(C)[Si](C#Cc1cc(=O)[nH]c2nc(Nc3ccc(N4CCN(C)CC4)c(CNCCCO)c3)ncc12)(C(C)C)C(C)C, other bond, 13-membered ring, PPh3/DIAD, 20.5 mM): 53%
CC(C)[Si](C#Cc1cc(=O)n2c3nc(ncc13)Nc1ccc(N3CCN(C)CC3)c(c1)NCCCC2)(C(C)C)C(C)C | – | – | – | – | ring closure, isolated yield ([1]; from CC(C)[Si](C#Cc1cc(=O)[nH]c2nc(Nc3ccc(N4CCN(C)CC4)c(NCCCCO)c3)ncc12)(C(C)C)C(C)C, other bond, 13-membered ring, PPh3/DIAD, 24.0 mM): 38%
CC(C)N1CCN(c2ccc3cc2NC(=O)CCCn2c(=O)cc(C#C[Si](C(C)C)(C(C)C)C(C)C)c4cnc(nc42)N3)CC1 | – | – | – | – | ring closure, isolated yield ([1]; from CC(C)N1CCN(c2ccc(Nc3ncc4c(C#C[Si](C(C)C)(C(C)C)C(C)C)cc(=O)[nH]c4n3)cc2NC(=O)CCCO)CC1, other bond, 13-membered ring, PPh3/DEAD, 72.2 mM): 44%
3^4-(4-Methylpiperazin-1-yl)-1^5-((triisopropylsilyl)ethynyl)-1^7,1^8-dihydro-4,7-dioxa-2-aza-1(2,8)-pyrido[2,3-d]pyrimidina-3(1,3)-benzenacyclononaphan-1^7-one | – | – | – | – | ring closure, isolated yield ([1]; other bond, 14-membered ring, PPh3/DEAD, 134.0 mM): 29%
3^4-(4-methylpiperazin-1-yl)-1^5-((triisopropylsilyl)ethynyl)-1^7,1^8-dihydro-2,5-diaza-1(2,8)-pyrido[2,3-d]pyrimidina-3(1,3)-benzenacyclooctaphane-1^7,4-dione | – | – | – | – | ring closure, isolated yield ([1]; other bond, 13-membered ring, PPh3/DIAD, 43.7 mM): 20%
CC(C)[Si](C#Cc1cc(=O)n2c3nc(ncc13)Nc1ccc(N3CCN(C)CC3)c(c1)CN(C)CCC2)(C(C)C)C(C)C | – | – | – | – | ring closure, isolated yield ([1]; from CC(C)[Si](C#Cc1cc(=O)[nH]c2nc(Nc3ccc(N4CCN(C)CC4)c(CN(C)CCCO)c3)ncc12)(C(C)C)C(C)C, other bond, 13-membered ring, PPh3/DIAD, 24.4 mM): 50%
C#Cc1cc(=O)n([C@H]2CC[C@@H](NC(=O)CC(=O)N(C)C)CC2)c2nc(Nc3ccc(N4CCN(C)CC4)cc3)ncc12 [Example 95, N,N-Dimethyl-N′-[(1s,4s)-4-(5-ethynyl-2-{[4-(4-methylpiperazin-1-yl)phenyl]amino}-7-oxopyrido[2,3-d]pyrimidin-8-yl)cyclohexyl]propanediamide] | < 500 | > 3000 | < 500 | 1000 to 10000 | –
C#Cc1c(-c2ccncc2Cl)c(=O)n(C)c2nc(Nc3ccc(N(C)CCN(C)C)cc3)ncc12 [Example 139, 6-(3-chloropyridin-4-yl)-2-[(4-{[2-(dimethylamino)ethyl](methyl)amino}phenyl)amino]-5-ethynyl-8-methylpyrido [2,3-d]pyrimidin-7-one] | 1000 to 3000 | > 3000 | 1000 to 3000 | < 1000 | –
C#Cc1cc(=O)n(-c2ccccc2)c2nc(Nc3ccc(C4CCN(C)CC4)cc3)ncc12 [Example 21, 5-Ethynyl-2-{[4-(1-methylpiperidin-4-yl)phenyl]amino}-8-phenylpyrido[2,3-d]pyrimidin-7-one] | < 500 | 1000 to 3000 | < 500 | < 1000 | –
C#Cc1cc(=O)n2c3nc(ncc13)Nc1ccc(N3CCN(C)CC3)c(c1)OC/C=C\C2 [Example 188, (Z)-1^5-ethynyl-3^4-(4-methylpiperazin-1-yl)-1^7,1^8-dihydro-4-oxa-2-aza-1(2,8)-pyrido[2,3-d]pyrimidina-3(1,3)-benzenacyclooctaphan-6-en-1^7-one] | < 500 | 500 to 1000 | < 500 | < 1000 | –
C#Cc1c(C)c(=O)n2c3nc(ncc13)Nc1cccc(c1)OC/C=C\C2 [Example 190, (Z)-1^5-ethynyl-1^6-methyl-1^7,1^8-dihydro-4-oxa-2-aza-1(2,8)-pyrido[2,3-d]pyrimidina-3(1,3)-benzenacyclooctaphan-6-en-1^7-one] | 1000 to 3000 | > 3000 | 1000 to 3000 | > 10000 | –
C#Cc1cc(=O)n(C)c2nc(Nc3ccc(N4CCN(C)CC4)c(NC(=O)NC4CCCC4)c3)ncc12 [Example 219, 3-Cyclopentyl-1-[5-({5-ethynyl-8-methyl-7-oxopyrido[2,3-d]pyrimidin-2-yl}amino)-2-(4-methylpiperazin-1-yl)phenyl]urea] | 500 to 1000 | > 3000 | 500 to 1000 | < 1000 | –
C#Cc1cc(=O)n(-c2ccc(N)cc2)c2nc(Nc3ccccc3OC)ncc12 [Example 61, 8-(4-Aminophenyl)-5-ethynyl-2-((2-methoxyphenyl)amino)pyrido[2,3-d]pyrimidin-7(8H)-one] | > 3000 | > 3000 | > 3000 | < 1000 | –
C#Cc1cc(=O)n2c3nc(ncc13)Nc1ccc(N3CCN(C)CC3)c(c1)COCCC2 [Example 196, 1^5-Ethynyl-34-(4-methylpiperazin-1-yl)-1^7, 1^8-dihydro-5-oxa-2-aza-1(2,8)-pyrido[2,3-d]pyrimidina-3(1,3)-benzenacyclooctaphan-1^7-one] | > 3000 | > 3000 | > 3000 | > 10000 | –
C#Cc1cc(=O)n(C2CCCC2)c2nc(Nc3cccc(N(C)[C@H]4C[C@H](CS(C)(=O)=O)C4)c3)ncc12 [Example 205] | > 3000 | > 3000 | > 3000 | < 1000 | –
C#Cc1c(-c2cccs2)c(=O)n(C)c2nc(Nc3ccc(N4CCN(C)CC4)cc3)ncc12 [Example 150, 5-ethynyl-8-methyl-2-{[4-(4-methylpiperazin-1-yl)phenyl]amino}-6-(thiophen-2-yl)pyrido[2,3-d]pyrimidin-7-one] | > 3000 | > 3000 | 1000 to 3000 | 1000 to 10000 | –
